The assay deals with T1, GPR12 (Homo sapiens, UniProt P47775).
T1 construct: expressed in transfected cells; host or cells: HEK293A, transient
T1 sequence (P47775 1-334): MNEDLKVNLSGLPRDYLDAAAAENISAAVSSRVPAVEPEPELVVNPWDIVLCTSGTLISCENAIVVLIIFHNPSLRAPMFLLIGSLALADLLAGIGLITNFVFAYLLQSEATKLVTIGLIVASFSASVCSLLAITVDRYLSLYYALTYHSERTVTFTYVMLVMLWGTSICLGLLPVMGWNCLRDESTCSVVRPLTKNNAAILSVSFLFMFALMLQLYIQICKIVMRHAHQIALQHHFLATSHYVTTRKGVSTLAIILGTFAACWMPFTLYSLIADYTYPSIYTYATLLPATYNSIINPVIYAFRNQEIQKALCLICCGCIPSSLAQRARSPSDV
The assay is described as follows: cAMP GloSensor 22F, GPR12-transfected HEK293A cells. The assay is classed as cell-based. From the text:
Next, we used the classical cAMP GloSensor technology to assess the target selectivity profile of 33. […] In addition, we tested the effects of 33 on cAMP changes mediated by agonist-stimulated GPCRs phylogenetically close to GPR3 and coupling to Gs or Gi/o proteins. […]
conditioning and no constraints were applied. The poses were visually inspected and the most favorable one that coincides with the co-solved ligand according to the available structures was chosen.
Plasmids and molecular cloning
The H187-EPAC-FRET sensor7 was kindly provided by K. Jalink (The Netherlands Cancer Institute, Amsterdam, The Nether-lands). The BRET-based cAMP sensor CAMYEL8 was kindly provided by Laura Humphrys (University of Regensburg, Regens-burg, Germany). Plasmids encoding the conformational biosensors α2AAR- and β2AR-HaloTag/Nluc9 and the Gs heterotrimer dissociation sensor10 were previously described. The expression plasmid encoding N-terminally HA-tagged GPR3 (cat. no.
#GPR003TN00) on a pcDNA3.1+ vector was obtained from the cDNA resource center (cdna.org). The Nluc and HaloTag in-serts were amplified with overhanging restriction sites from β2AAR- HaloTag/Nluc and ligated to the full-length C-terminus or inserted into icl3 of GPR3, respectively, to obtain the conformational biosensor GPR3-HaloTag/Nluc. […]

Structures are written as SMILES.

As to `N=c1n(Cc2ccccc2)c2ccccc2n1CC1CC1` [compound 33], the “receptor-specific change in cAMP, GPR12” value is given as “no receptor-specific changes in cAMP levels below 100 μM”.

These data come from PMC13195669, “GPR3 Ligands Discovered through Combined Virtual and Conformational Biosensor-Based Screening” (Journal of the American Chemical Society, 2026).
